Laboratory results published in ChEMBL document CHEMBL1697731, “Cheminformatics analysis of assertions mined from literature that describe drug-induced liver injury in different species” (Chem Res Toxicol, 2010).

Tests used:
Hepatotoxicity [1] = experiment: Literature-mined compound from Fourches et al multi-species drug-induced liver injury (DILI) dataset, effect in non-rodents
Hepatotoxicity [2] = experiment: Literature-mined compound from Fourches et al multi-species drug-induced liver injury (DILI) dataset, effect in humans; conditions: human
Hepatotoxicity [3] = experiment: Literature-mined compound from Fourches et al multi-species drug-induced liver injury (DILI) dataset, effect in rodents; conditions: rodentia

| SMILES | Hepatotoxicity (Hepatotoxicity [1]) | Hepatotoxicity (Hepatotoxicity [2]) | Hepatotoxicity (Hepatotoxicity [3]) | Hepatotoxicity (Hepatotoxicity [1]; Liver) | Hepatotoxicity (Hepatotoxicity [2]; Liver) | Hepatotoxicity (Hepatotoxicity [3]; Liver) |
| --- | --- | --- | --- | --- | --- | --- |
| CCCCN1C[C@H](O)[C@@H](O)[C@H](O)[C@H]1CO | no drug-induced liver injury reported | no drug-induced liver injury reported | drug-induced liver injury reported |  |  |  |
| CCc1cc2c(s1)N(C)C(=O)CN=C2c1ccccc1Cl [CLOTIAZEPAM] | no drug-induced liver injury reported | drug-induced liver injury reported | no drug-induced liver injury reported |  |  |  |
| C[C@H](N)[C@H](O)c1ccccc1 [(1R,2S)-PHENYLPROPANOLAMINE] | no drug-induced liver injury reported | no drug-induced liver injury reported | drug-induced liver injury reported |  |  |  |
| COc1cccc2c1C(=O)c1c(O)c3c(c(O)c1C2=O)C[C@@](O)(C(=O)CO)C[C@@H]3O[C@H]1C[C@H](N)[C@H](O)[C@H](C)O1.Cl [DOXORUBICIN HYDROCHLORIDE] | no drug-induced liver injury reported | drug-induced liver injury reported | no drug-induced liver injury reported |  |  |  |
| CC(=O)O[C@H]1C(=O)[C@@]2(C)[C@H]([C@H](OC(=O)c3ccccc3)[C@]3(O)C[C@H](OC(=O)[C@H](O)[C@@H](NC(=O)c4ccccc4)c4ccccc4)C(C)=C1C3(C)C)[C@]1(OC(C)=O)CO[C@@H]1C[C@@H]2O [PACLITAXEL] |  |  |  | no drug-induced liver injury reported | drug-induced liver injury reported | drug-induced liver injury reported |
| CC(C)(S)[C@@H](N)C(=O)O [PENICILLAMINE] | drug-induced liver injury reported | drug-induced liver injury reported | drug-induced liver injury reported |  |  |  |
| COC1=CC(=O)C[C@@H](C)[C@]12Oc1c(Cl)c(OC)cc(OC)c1C2=O [GRISEOFULVIN] | no drug-induced liver injury reported | drug-induced liver injury reported | drug-induced liver injury reported |  |  |  |
| CC1Cc2ccccc2N1NC(=O)c1ccc(Cl)c(S(N)(=O)=O)c1 (stereo unspecified) [INDAPAMIDE] | no drug-induced liver injury reported | no drug-induced liver injury reported | drug-induced liver injury reported |  |  |  |
| CCC[C@H](NC(=O)[C@@H]1[C@H]2CCC[C@H]2CN1C(=O)[C@@H](NC(=O)[C@@H](NC(=O)c1cnccn1)C1CCCCC1)C(C)(C)C)C(=O)C(=O)NC1CC1 | no drug-induced liver injury reported | drug-induced liver injury reported | no drug-induced liver injury reported |  |  |  |
| C[C@]12Cc3c[nH]nc3C[C@@H]1CC[C@@H]1[C@@H]2CC[C@@]2(C)[C@H]1CC[C@]2(C)O [STANOZOLOL] | no drug-induced liver injury reported | drug-induced liver injury reported | drug-induced liver injury reported |  |  |  |
| CNC1(c2ccccc2Cl)CCCCC1=O (stereo unspecified) [KETAMINE] | drug-induced liver injury reported | no drug-induced liver injury reported | drug-induced liver injury reported |  |  |  |
| O=C1O[C@H]([C@@H](O)CO)C(O)=C1O [ASCORBIC ACID] | drug-induced liver injury reported | drug-induced liver injury reported | drug-induced liver injury reported |  |  |  |
| COc1cc2nc(N3CCN(C(=O)c4ccco4)CC3)nc(N)c2cc1OC [PRAZOSIN] | no drug-induced liver injury reported | drug-induced liver injury reported | drug-induced liver injury reported |  |  |  |
| CC(=O)Nc1ccc(O)cc1 [ACETAMINOPHEN] | drug-induced liver injury reported | drug-induced liver injury reported | drug-induced liver injury reported |  |  |  |
| CC(=O)[C@H]1CC[C@H]2[C@@H]3CCC4=CC(=O)CC[C@]4(C)[C@H]3CC[C@]12C (stereo in doubt; form 1) [PROGESTERONE] | drug-induced liver injury reported | drug-induced liver injury reported | drug-induced liver injury reported |  |  |  |
| CC(C)(O)c1ccccc1CC[C@@H](SCC1(CC(=O)O)CC1)c1cccc(/C=C/c2ccc3ccc(Cl)cc3n2)c1 [MONTELUKAST] | no drug-induced liver injury reported | drug-induced liver injury reported | no drug-induced liver injury reported |  |  |  |
| NC[C@H]1O[C@H](O[C@H]2[C@H](O)[C@@H](O[C@H]3O[C@H](CO)[C@@H](O)[C@H](N)[C@H]3O)[C@H](N)C[C@@H]2N)[C@H](N)C[C@@H]1O [TOBRAMYCIN] | no drug-induced liver injury reported | no drug-induced liver injury reported | drug-induced liver injury reported |  |  |  |
| COc1ccccc1Oc1c(NS(=O)(=O)c2ccc(C(C)(C)C)cc2)nc(-c2ncccn2)nc1OCCO [BOSENTAN] | drug-induced liver injury reported | drug-induced liver injury reported | drug-induced liver injury reported |  |  |  |
| CSCC[C@H](NC(=O)[C@H](Cc1c[nH]c2ccccc12)NC(=O)CCNC(=O)OC(C)(C)C)C(=O)N[C@@H](CC(=O)O)C(=O)N[C@@H](Cc1ccccc1)C(N)=O [PENTAGASTRIN] | no drug-induced liver injury reported | drug-induced liver injury reported | drug-induced liver injury reported |  |  |  |

| SMILES | Hepatotoxicity (Hepatotoxicity [1]) | Hepatotoxicity (Hepatotoxicity [2]) | Hepatotoxicity (Hepatotoxicity [3]) | Hepatotoxicity (Hepatotoxicity [1]; Liver) | Hepatotoxicity (Hepatotoxicity [2]; Liver) | Hepatotoxicity (Hepatotoxicity [3]; Liver) |
| --- | --- | --- | --- | --- | --- | --- |
| CC(CCc1ccc(O)cc1)NCCc1ccc(O)c(O)c1 (stereo unspecified) [DOBUTAMINE] | drug-induced liver injury reported | drug-induced liver injury reported | no drug-induced liver injury reported |  |  |  |
| O=C1NCCN1c1ncc([N+](=O)[O-])s1 [NIRIDAZOLE] | no drug-induced liver injury reported | no drug-induced liver injury reported | drug-induced liver injury reported |  |  |  |
| FC(F)OC(F)(F)C(F)Cl (stereo unspecified) | drug-induced liver injury reported | drug-induced liver injury reported | drug-induced liver injury reported |  |  |  |
| Nc1ncnc2nc[nH]c12 [ADENINE] | no drug-induced liver injury reported | no drug-induced liver injury reported | drug-induced liver injury reported |  |  |  |
| COCCc1ccc(OCC(O)CNC(C)C)cc1 (stereo unspecified) [METOPROLOL] | no drug-induced liver injury reported | drug-induced liver injury reported | drug-induced liver injury reported |  |  |  |
| COc1ccc([C@@H]2CC(=O)c3c(O)cc(O[C@@H]4O[C@H](CO[C@@H]5O[C@@H](C)[C@H](O)[C@@H](O)[C@H]5O)[C@@H](O)[C@H](O)[C@H]4O)cc3O2)cc1O [HESPERIDIN] | no drug-induced liver injury reported | drug-induced liver injury reported | drug-induced liver injury reported |  |  |  |
| CC(=O)N[C@@H](CS)C(=O)O [ACETYLCYSTEINE] | no drug-induced liver injury reported | drug-induced liver injury reported | drug-induced liver injury reported |  |  |  |
| O=C(O)COc1ccc(C(=O)c2cccs2)c(Cl)c1Cl | no drug-induced liver injury reported | drug-induced liver injury reported | drug-induced liver injury reported |  |  |  |
| CCCCC(=O)N(Cc1ccc(-c2ccccc2-c2nnn[nH]2)cc1)[C@H](C(=O)O)C(C)C | no drug-induced liver injury reported | drug-induced liver injury reported | drug-induced liver injury reported |  |  |  |
| CC(=O)Oc1ccccc1C(=O)O.NCCCCC(N)C(=O)O [ASPIRIN DL-LYSINE] | no drug-induced liver injury reported | drug-induced liver injury reported | drug-induced liver injury reported |  |  |  |
| CC(C)(C)NC[C@H](O)COc1nsnc1N1CCOCC1 [TIMOLOL] | no drug-induced liver injury reported | drug-induced liver injury reported | no drug-induced liver injury reported |  |  |  |
| N[C@@H](Cc1cc(I)c(Oc2cc(I)c(O)c(I)c2)c(I)c1)C(=O)O [LEVOTHYROXINE] | drug-induced liver injury reported | drug-induced liver injury reported | drug-induced liver injury reported |  |  |  |
| OC[C@@H](O)[C@@H](O)[C@H](O)[C@H](O)CO [MANNITOL] | drug-induced liver injury reported | drug-induced liver injury reported | drug-induced liver injury reported |  |  |  |
| Cc1cc(O)cc(C)c1Cl [CHLOROXYLENOL] | no drug-induced liver injury reported | no drug-induced liver injury reported | drug-induced liver injury reported |  |  |  |
| C[C@](N)(Cc1ccc(O)c(O)c1)C(=O)O [METHYLDOPA] | no drug-induced liver injury reported | drug-induced liver injury reported | no drug-induced liver injury reported |  |  |  |
| COc1cc(C(=O)NS(=O)(=O)c2ccccc2C)ccc1Cc1cn(C)c2ccc(NC(=O)OC3CCCC3)cc12 [ZAFIRLUKAST] | no drug-induced liver injury reported | drug-induced liver injury reported | no drug-induced liver injury reported |  |  |  |
| CC(C(=O)O)c1ccc(-c2ccccc2)c(F)c1 (stereo unspecified) [FLURBIPROFEN] | drug-induced liver injury reported | no drug-induced liver injury reported | drug-induced liver injury reported |  |  |  |
| CN(c1nccc(=O)[nH]1)C1CCN(c2nc3ccccc3n2Cc2ccc(F)cc2)CC1 [MIZOLASTINE] | no drug-induced liver injury reported | drug-induced liver injury reported | no drug-induced liver injury reported |  |  |  |
